From ChEMBL document CHEMBL5331055, “Current medicinal chemistry strategies in the discovery of novel HIV-1 ribonuclease H inhibitors” (Eur J Med Chem, 2022)
pEC50, pIC50: −log10 of the molar value. One block for each compound: values may come before it.

Tests used:
[1] = target: T1, Human immunodeficiency virus type 1 reverse transcriptase (Human immunodeficiency virus 1, UniProt Q72547); test: Inhibition of HIV-1 reverse transcriptase associated RNase H activity
[2] = target: T1, Human immunodeficiency virus type 1 reverse transcriptase; test: Non-competitive inhibition of HIV reverse transcriptase polymerase activity
[3] = target: T1, Human immunodeficiency virus type 1 reverse transcriptase; test: Inhibition of HIV-1 RNase H
[4] = system: Human immunodeficiency virus 1; test: Antiviral activity against wild type HIV-1 infected in human MT4 cells assessed as inhibition of virus-induced cytopathic effect measured by MTT assay; type: functional, organism-based; conditions: Human immunodeficiency virus 1, MT4
[5] = target: T2, Human immunodeficiency virus type 1 integrase (Human immunodeficiency virus 1, UniProt Q7ZJM1); test: Inhibition of HIV-1 integrase strand transfer activity
T2 sequence (Q7ZJM1 whole entry): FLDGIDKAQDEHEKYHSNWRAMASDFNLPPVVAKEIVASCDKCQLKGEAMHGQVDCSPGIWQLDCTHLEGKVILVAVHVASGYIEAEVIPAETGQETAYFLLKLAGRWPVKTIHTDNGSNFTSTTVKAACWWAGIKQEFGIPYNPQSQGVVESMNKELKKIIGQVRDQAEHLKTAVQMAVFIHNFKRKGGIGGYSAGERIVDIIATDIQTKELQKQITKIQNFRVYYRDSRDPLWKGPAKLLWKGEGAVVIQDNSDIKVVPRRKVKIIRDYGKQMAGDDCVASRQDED

[6] = Inhibition of HIV-1 reverse transcriptase associated RNA dependent DNA polymerase activity incubated for 30 mins by multilabel counter plate reader method; set-up: species or system Human immunodeficiency virus 1
[7] = Cytotoxicity against human MT4 cells assessed as reduction in cell viability by MTT assay; type: toxicity, cell-based
[8] = Inhibition of wild type HIV-1 RNA dependent DNA polymerase activity incubated for 30 mins by multilabel counter plate reader method; set-up: species or system Human immunodeficiency virus 1
[9] = target: T1, Human immunodeficiency virus type 1 reverse transcriptase; test: Inhibition of wild type HIV-1 reverse transcriptase associated DNA polymerase independent RNase H activity using 5-GTTTTCTTTTCCCCCCTGAC-3 Fluorescein/5CAAAAGAAAAGGGGGGACUG-3-Dabcyl RNA/DNA template-primer as substrate by multilabel counter plate reader method
[10] = system: Human immunodeficiency virus 1; test: Antiviral activity against wild type HIV-1 IIIB infected in human MT2 cells assessed as protection against virus-induced cytopathicity incubated for 5 days by MTT assay; type: functional, organism-based; conditions: Human immunodeficiency virus 1, IIIB, MT2, 120 h
[11] = target: T1, Human immunodeficiency virus type 1 reverse transcriptase; test: Inhibition of N-terminal 6-his-tagged HIV-1 reverse transcriptase RNase H (427 to 560 residues) transformed in Escherichia coli […] (DE3) at pH 7.4 incubated for 4 hrs
[12] = target: T1, Human immunodeficiency virus type 1 reverse transcriptase; test: Inhibition of N-terminal 6-his-tagged HIV-1 reverse transcriptase RNase H (427 to 560 residues) transformed in Escherichia coli […] (DE3) at pH 8.0 incubated for 4 hrs
[13] = target: T1, Human immunodeficiency virus type 1 reverse transcriptase; test: Inhibition of recombinant HIV-1 reverse transcriptase […] RNase H expressed in Escherichia coli M15 using 5-GTTTTCTTTTCCCCCCTGAC-3 Fluorescein/5CAAAAGAAAAGGGGGGACUG-3-Dabcyl RNA/DNA template-primer as substrate incubated for 1 hr by multilabel counter plate reader method
[14] = target: T1, Human immunodeficiency virus type 1 reverse transcriptase; test: Inhibition of HIV-1 reverse transcriptase associated RNase H using 5-GTTTTCTTTTCCCCCCTGAC-3 Fluorescein/5CAAAAGAAAAGGGGGGACUG-3-Dabcyl as substrate incubated for 1 hr
[15] = target: T2, Human immunodeficiency virus type 1 integrase; test: Inhibition of recombinant HIV-1 His-tagged LEDGF-dependent integrase preincubated for 1 hr followed by compound addition and measured after 90 mins by HTRF method
[16] = system: Human immunodeficiency virus 1; test: Antiviral activity against HIV-1 infected in human MT4 cells assessed as inhibition of virus-induced cytopathic effect measured after 5 days by spectrophotometric MTT assay; type: functional, organism-based; conditions: Human immunodeficiency virus 1, MT4, 120 h
MT4 = test: Cytotoxicity against human MT4 cells; type: functional
[17] = target: T1, Human immunodeficiency virus type 1 reverse transcriptase; test: Inhibition of HIV-1 reverse transcriptase RNase H activity expressed in Escherichia coli M15 using 5-GTTTTCTTTTCCCCCCTGAC-3 Fluorescein/5CAAAAGAAAAGGGGGGACUG-3-Dabcyl RNA/DNA template-primer as substrate incubated for 1 hr by multilabel counter plate reader method
[18] = system: Human immunodeficiency virus 1; test: Antiviral activity against HIV-1 IIIB infected in human TZM-bl cells assessed as reduction in virus-induced cytopathic effect incubated for 5 days by MTT assay; type: functional, organism-based; conditions: Human immunodeficiency virus 1, IIIB, 120 h
[19] = Cytotoxicity against human TZM-bl cells assessed as reduction in cell viability incubated for 5 days by MTT assay; type: toxicity, cell-based; conditions: time 5 day
in vitro = conditions: human, TZM-bl cells
Description: Cytotoxicity against human TZM-bl cells assessed as reduction in cell viability at 20 uM incubated for 3 days by XTT assay

Compound: C=C(C)[C@@H]1CCc2c(c(C)cc(O)c(=O)c2O)C1
pIC50 [3]: 6.22

Compound: CCOC(=O)C(=O)CC(=O)/C=C/c1cccn1Cc1ccc(F)cc1
pEC50 [4]: 4.85

Compound: Nc1ccc(S(=O)(=O)N2CCN(C(=O)c3cc(O)c(O)c(O)c3)CC2)cc1
CC50 [7]: > 19.9 µM

Compound: Nc1nn(C(=O)c2ccccc2)c(N)c1C(=S)Nc1ccc(Cl)cc1
pIC50 [8]: 4.77
pIC50 [9]: 5.15
pIC50 [10]: 4.60

Compound: Cn1cc(-c2ccc(-c3ccccc3)cc2)s/c1=N/N=C1\C(=O)Nc2ccc(Cl)cc21
pIC50 [3]: 5.00
pIC50 [9]: 5.02

Compound: N#Cc1ccc(-c2c[nH]/c(=N\N=C3/C(=O)Nc4ccccc43)s2)cc1
pIC50 [13]: 5.89
pIC50 [8]: 5.01

Compound: COc1cc(OC)cc(OC(=O)c2ccc(C(F)(F)F)nc2Nc2cc(Cl)ccc2C)c1
pIC50 [17]: 4.85
pIC50 [6]: 4.79
pEC50 [18]: 5.30
CC50 at 120 h [19]: > 50 µM

Compound: CC1=C[C@H](c2c(O)ccc([C@@H]3CC(=O)c4c(O)cc(O)cc4O3)c2O)[C@@H](C(=O)c2ccc(O)cc2O)[C@H](c2ccc(O)cc2O)C1 [KUWANON L]
CC50 at 72 h (in vitro): > 20 µM

More lines, main results first:

pIC50 [1]: 6.19
pIC50 [2]: 5.59
Compound: O=C1Cc2ccc(-c3ccco3)cc2C(=O)N1O

pIC50 [3]: 6.89
Compound: COC(=O)c1c(C)cc(O)c(=O)c(O)c1Br

pIC50 [5]: 5.30
pIC50 [6]: 5.17
Compound: Cc1c(O)c([N+](=O)[O-])cc2cc(C(=O)Nc3ccc(O)c(C(=O)O)c3)c(=O)oc12

pIC50 [6]: 5.22
Compound: COC(=O)c1cc(NC(=O)c2cc3cc([N+](=O)[O-])c(O)c(O)c3oc2=O)ccc1O

pIC50 [11]: 5.32
pIC50 [12]: 5.96
Compound: O=C(O)Cc1cc(=O)oc2c(O)c(O)ccc12

pIC50 [14]: 5.77
pIC50 [15]: 4.80
Compound: O=C(N/N=C/c1ccc(O)cc1O)c1cc(O)c(O)c(O)c1
pEC50 [16]: 4.77
CC50 (MT4): 61 µM
